This note sets out measurements from PubChem BioAssay (NCI).

Among the test systems are DU-145 prostate; SK-MEL-2 melanoma; K-562 leukemia; ACHN renal; SN12C renal; SNB-19 CNS; M14 melanoma; HOP-62 NSCLC; CAKI-1 renal; SNB-75 CNS.
Holding throughout (experiment): NCI tumour cell line growth inhibition, 48 h

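Grown in 96-well plates, cells were treated for 48 hours with each compound at five concentrations. Insufficient inhibition: endpoint recorded as highest concentration tested. GI50 marks 50% less growth. TGI: total growth inhibition.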

Regarding `O=C(Nc1ccccc1)OC1OC(COC(=O)c2ccccc2)C(OC(=O)c2ccccc2)C1OS(=O)(=O)c1ccc([N+](=O)[O-])cc1` (centres undefined), the TGI with DU-145 prostate, in the assay with SK-MEL-2 melanoma, in the assay with K-562 leukemia, in the assay with ACHN renal, in the assay with SN12C renal and in the assay on SNB-19 CNS was above 100 µM throughout. Besides, the TGI in the assay on M14 melanoma, with HOP-62 NSCLC and in the assay on CAKI-1 renal was above 100 µM throughout.

As for `Cc1ccc(N=C2N=C(N3CC(C)OC(C)C3)c3ccccc32)cc1` (centres undefined), the TGI in the assay on SK-MEL-2 melanoma is 70.4 µM; in the assay with K-562 leukemia it was above 100 µM; in the assay with ACHN renal, above 100 µM; in the assay with SN12C renal it was above 100 µM; in the assay on SNB-19 CNS it was above 100 µM; in the assay on M14 melanoma, 56.5 µM. Further, the TGI in the assay on HOP-62 NSCLC is above 100 µM; in the assay with CAKI-1 renal it was 51 µM; in the assay with SNB-75 CNS, 88.5 µM.

Consider `Cc1ccc(/C=C/C(=O)c2sc(-n3nc(-c4ccccc4)cc3-c3ccccc3)nc2C)cc1`, for which the TGI in the assay on SK-MEL-2 melanoma, in the assay with K-562 leukemia, in the assay with ACHN renal, in the assay on SN12C renal, in the assay with HOP-62 NSCLC and in the assay on CAKI-1 renal was above 100 µM throughout. The same compound returned a TGI in the assay on SNB-75 CNS above 100 µM.

As to `O=C1C=C2CCCC2C(C(=O)O)(C(=O)O)C1` (centres undefined), the TGI in the assay on SK-MEL-2 melanoma, in the assay on K-562 leukemia, in the assay on SN12C renal, in the assay on SNB-19 CNS, with M14 melanoma and in the assay with HOP-62 NSCLC was above 100 µM throughout. Further, the TGI in the assay on CAKI-1 renal and in the assay with SNB-75 CNS was above 100 µM throughout.

`CCOC(=O)c1c(C)nc2c(c1N)/C(=C/c1ccccn1)C(=O)N2Cc1ccccc1`: the GI50 in the assay with SK-MEL-2 melanoma is 1.16 µM; in the assay with K-562 leukemia it was 1.77 µM; with ACHN renal, 0.906 µM; in the assay on SN12C renal, 1.15 µM; in the assay on SNB-19 CNS, 1.09 µM; in the assay on M14 melanoma, 1.03 µM. The TGI in the assay with SK-MEL-2 melanoma is 3.01 µM; with K-562 leukemia it was above 50 µM; in the assay on ACHN renal it was 1.76 µM; in the assay on SN12C renal, 3.09 µM; in the assay on SNB-19 CNS, 2.49 µM; with M14 melanoma, 2.39 µM.

As to `O=C(N=c1nc(NC(=O)c2ccccc2)ss1)c1ccccc1`, the TGI in the assay with SK-MEL-2 melanoma was above 100 µM; with K-562 leukemia it was above 100 µM; with ACHN renal it was 31.6 µM; in the assay on SN12C renal, 66.6 µM; with SNB-19 CNS, above 100 µM; in the assay with M14 melanoma, 76.2 µM. In addition, the TGI with HOP-62 NSCLC is above 100 µM; with CAKI-1 renal it was 75.8 µM; in the assay with SNB-75 CNS it was above 100 µM.

Turning to `COc1ccc(O)cc1C(O)c1ccccc1` (centres undefined), the TGI in the assay with SK-MEL-2 melanoma, in the assay on K-562 leukemia, in the assay on ACHN renal, in the assay with SN12C renal, in the assay with SNB-19 CNS and with M14 melanoma was above 100 µM throughout. Besides, the TGI in the assay on HOP-62 NSCLC, in the assay on CAKI-1 renal and with SNB-75 CNS was above 100 µM each time.

Regarding `O=C(N/C(=C\c1ccccc1O)c1nc2ccccc2[nH]1)c1ccccc1`, the TGI with SK-MEL-2 melanoma, with K-562 leukemia, in the assay with ACHN renal, in the assay on SN12C renal, with SNB-19 CNS and in the assay on M14 melanoma was above 100 µM each time. Further, the results for the TGI in the assay with HOP-62 NSCLC, with CAKI-1 renal and with SNB-75 CNS were above 100 µM, above 100 µM and 36.1 µM, respectively.

`O=C(CC1C(=O)Nc2ccccc2S1(=O)=O)Nc1ccc(Cl)cc1` (centres undefined): the TGI with SK-MEL-2 melanoma was 65.3 µM; in the assay with K-562 leukemia, 48.9 µM; in the assay with ACHN renal, 71.9 µM; in the assay on SN12C renal, above 100 µM; in the assay on SNB-19 CNS, 57.1 µM; in the assay on M14 melanoma, above 100 µM. Further, the TGI with CAKI-1 renal worked out at 43.5 µM; in the assay with SNB-75 CNS, 37.6 µM.

For `COc1c(I)c(OC)c2c(c1I)O[C@@H]1OCC[C@H]21`, the TGI was 41.2 µM in the assay on SK-MEL-2 melanoma; above 100 µM in the assay with K-562 leukemia; above 100 µM in the assay with ACHN renal; above 100 µM with SN12C renal; above 100 µM with SNB-19 CNS; 50.5 µM with M14 melanoma. The TGI in the assay with HOP-62 NSCLC is above 100 µM; with CAKI-1 renal, 46.1 µM; in the assay on SNB-75 CNS, 82.9 µM.

Take `N#C/C(=C1\OC(=N)C(c2ccccc2)C1=O)c1ccccc1` (centres undefined): the TGI was above 100 µM in the assay with SK-MEL-2 melanoma; 74.6 µM in the assay on K-562 leukemia; 31.8 µM in the assay with ACHN renal; above 81.6 µM in the assay on SN12C renal; above 100 µM in the assay with SNB-19 CNS; above 59.5 µM with M14 melanoma. The TGI in the assay with HOP-62 NSCLC was above 100 µM; in the assay with CAKI-1 renal, above 96.6 µM; in the assay with SNB-75 CNS it was above 85.7 µM.

Consider `C[N+](C)(C)c1cc[c]([Sn]([c]2ccc([N+](C)(C)C)cc2)([c]2ccc([N+](C)(C)C)cc2)[c]2ccc([N+](C)(C)C)cc2)cc1`, for which the GI50 in the assay with SK-MEL-2 melanoma, in the assay on K-562 leukemia, in the assay on ACHN renal, in the assay on SN12C renal, in the assay with SNB-19 CNS and in the assay on M14 melanoma was above 100 µM throughout. Besides, the GI50 in the assay with HOP-62 NSCLC and in the assay with SNB-75 CNS was above 100 µM throughout. The TGI with SK-MEL-2 melanoma, in the assay with K-562 leukemia, with ACHN renal, in the assay on SN12C renal, in the assay with SNB-19 CNS and with M14 melanoma was above 100 µM each time. Further, the TGI in the assay on HOP-62 NSCLC and with SNB-75 CNS was above 100 µM in each case.

For `O=C(CCC(=O)Nc1cccc(C(F)(F)F)c1)CC(=O)c1ccc2ccccc2c1`, the TGI in the assay with SK-MEL-2 melanoma, with K-562 leukemia, with ACHN renal, in the assay with SN12C renal, with SNB-19 CNS and with M14 melanoma was above 100 µM in each case. Further, in the assay with CAKI-1 renal, the TGI is above 100 µM.

With `CCOC(=O)c1[nH]c2cc(OC)c(OC)cc2c1CN(C)C`, the TGI with SK-MEL-2 melanoma, in the assay on K-562 leukemia, with ACHN renal, in the assay on SN12C renal, in the assay with SNB-19 CNS and with M14 melanoma was above 100 µM throughout. Moreover, the TGI in the assay on CAKI-1 renal and with SNB-75 CNS was above 100 µM throughout.
